According to patent US8952024B2, “Herbicidal pyrimidone derivatives” (E I du Pont de Nemours and Company, priority 2009, dated 2015):

Columns and labels:
Assay in all cases: Test B pre-/postemergence plant response
Format in all cases: in vivo
Settings in all cases: Postemergence
[1] = system: lambsquarters (Chenopodium album)
Outline: (§1)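 Seeds were sown in loam soil/sand blend and treated preemergence with compound in non-phytotoxic solvent mixture containing surfactant; postemergence sprays, same formulation, went onto plants 2 to 18 cm (1- to 4-leaf stage) in peat-based planting medium. Greenhouse 13 to 15 days, then visual rating versus untreated controls, 0 (no effect) to 100 (complete control).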

[2] = system: wheat (Triticum aestivum)
Outline: as §1

[3] = system: Italian ryegrass (Lolium multiflorum)
Outline: as §1

[4] = system: goosegrass (Eleusine indica)
Outline: as §1

[5] = system: woolly cupgrass (Eriochloa villosa)
Outline: as §1

[6] = system: green foxtail (Setaria viridis)
Outline: as §1

[7] = system: ragweed (common ragweed, Ambrosia elatior)
Outline: as §1

[8] = system: pigweed (Amaranthus retroflexus)
Outline: as §1

[9] = system: large crabgrass (Digitaria sanguinalis)
Outline: as §1

[10] = system: downy bromegrass (Bromus tectorum)
Outline: as §1

[11] = system: velvetleaf (Abutilon theophrasti)
Outline: as §1

[12] = system: yellow nutsedge (Cyperus esculentus)
Outline: as §1

[13] = system: Surinam grass (Brachiaria decumbens)
Outline: as §1

[14] = 31 g ai/ha, scale 0 to 100 (0 no effect, 100 complete control)
[15] = 62 g ai/ha, scale 0 (no effect) to 100 (complete control), 13 to 15 days
[16] = 125 g ai/ha, visual rating after 13 to 15 days, scale 0 (no effect) to 100 (complete control)

## Cc1ccc(-n2c(-c3ccccc3)ncc(C(=O)C3=C(O)CCCC3=O)c2=O)cc1 [Compound 8]
[1]; [14]
  Plant response rating, Lambsquarters: 95
[1]; [15]
  Plant response rating, Lambsquarters: 100
[1]; [16]
  Plant response rating, Lambsquarters: 100
[1]; 250 g ai/ha, scale 0 to 100
  Lambsquarters plant response rating: 100
[2]; [14]
  Plant response rating, Wheat: 25
[2]; [15]
  Plant response rating, Wheat: 30
[2]; [16]
  Plant response rating, Wheat: 35
[2]; 250 g ai/ha, scale 0 to 100
  Wheat plant response rating: 35
[3]; [14]
  Plant response rating, Ryegrass, Italian: 20
[3]; [15]
  Plant response rating, Ryegrass, Italian: 20
[3]; [16]
  Plant response rating, Ryegrass, Italian: 30
[3]; 250 g ai/ha, scale 0 to 100
  Ryegrass, Italian plant response rating: 50
[4]; [14]
  Plant response rating, Goosegrass: 80
[4]; [15]
  Plant response rating, Goosegrass: 85
[4]; [16]
  Plant response rating, Goosegrass: 95
[4]; 250 g ai/ha, scale 0 to 100
  Goosegrass plant response rating: 100
[5]; [14]
  Plant response rating, Cupgrass, Woolly: 75
[5]; [15]
  Plant response rating, Cupgrass, Woolly: 80
[5]; [16]
  Plant response rating, Cupgrass, Woolly: 90
[5]; 250 g ai/ha, scale 0 to 100
  Cupgrass, Woolly plant response rating: 100
[6]; [14]
  Plant response rating, Foxtail, Green: 40
[6]; [15]
  Plant response rating, Foxtail, Green: 70
[6]; [16]
  Plant response rating, Foxtail, Green: 85
[6]; 250 g ai/ha, scale 0 to 100
  Foxtail, Green plant response rating: 95
[7]; [14]
  Plant response rating, Ragweed: 90
[7]; [15]
  Plant response rating, Ragweed: 100
[7]; [16]
  Plant response rating, Ragweed: 100
[7]; 250 g ai/ha, scale 0 to 100
  Ragweed plant response rating: 100
[8]; [14]
  Plant response rating, Pigweed: 98
[8]; [15]
  Plant response rating, Pigweed: 100
[8]; [16]
  Plant response rating, Pigweed: 100
[8]; 250 g ai/ha, scale 0 to 100
  Pigweed plant response rating: 100
[9]; [14]
  Plant response rating, Crabgrass, Large: 70
[9]; [15]
  Plant response rating, Crabgrass, Large: 85
[9]; [16]
  Plant response rating, Crabgrass, Large: 90
[9]; 250 g ai/ha, scale 0 to 100
  Crabgrass, Large plant response rating: 100
[10]; [14]
  Plant response rating, Bromegrass, Downy: 5
[10]; [15]
  Plant response rating, Bromegrass, Downy: 5
[10]; [16]
  Plant response rating, Bromegrass, Downy: 10
[10]; 250 g ai/ha, scale 0 to 100
  Bromegrass, Downy plant response rating: 10
[11]; [14]
  Plant response rating, Velvetleaf: 75
[11]; [15]
  Plant response rating, Velvetleaf: 80
[11]; [16]
  Plant response rating, Velvetleaf: 95
[11]; 250 g ai/ha, scale 0 to 100
  Velvetleaf plant response rating: 100
[12]; [14]
  Plant response rating, Nutsedge, Yellow: 65
[12]; [15]
  Plant response rating, Nutsedge, Yellow: 70
[12]; [16]
  Plant response rating, Nutsedge, Yellow: 80
[12]; 250 g ai/ha, scale 0 to 100
  Nutsedge, Yellow plant response rating: 85
[13]; [14]
  Plant response rating, Surinam Grass: 60
[13]; [15]
  Plant response rating, Surinam Grass: 65
[13]; [16]
  Plant response rating, Surinam Grass: 75
[13]; 250 g ai/ha, scale 0 to 100
  Surinam Grass plant response rating: 80
